Assay: Storage Stability Test (coating fluid)
Type: physicochemical
Set-up: key: Excellent: Turbidity or the like derived from crystal precipitation is not present even after storage of coating fluid; Bad: Turbidity or the like derived from precipitation of the charge transport substance is present after storage of coating fluid
Conditions: charge transport layer coating fluid (60 parts substance, 100 parts polycarbonate PD, tetrahydrofuran/toluene 8/2) stored at −5 to 0° C. for 2 months, checked for turbidity
Procedure: As the binder resin, the polycarbonate resin (Mv=39,200) having a repeating unit represented by the structural formula (PD) was used. Then, 60 parts by mass of the charge transport substance, 100 parts by mass of the binder resin, 2 parts by mass of an antioxidant having a structure represented by the following formula (AOX2), and 0.05 parts by mass of a silicone oil as a leveling agent were dissolved in 540 parts by mass of a mixed solvent of tetrahydrofuran/toluene (mass ratio: 8/2) to prepare a charge transport layer coating fluid for coating fluid storage stability test.
The coating fluid obtained was placed in a glass sealed bottle and stored under the condition of −5 to 0° C. for 2 months. Then, it was checked whether turbidity or the like occurred or not in the coating fluid after storage, thereby evaluating the coating fluid storage stability.
The charge transport substances used in evaluation, the results of stability evaluation, and the criteria for the coating fluid stability are shown in the following Table-6.

SMILES	Storage stability
Cc1ccc(N(c2ccc(C)cc2)c2ccc(/C=C/c3ccc(N(c4ccc(C)cc4)c4ccc(/C=C/c5ccc(N(c6ccc(C)cc6)c6ccc(C)cc6)cc5)cc4)cc3)cc2)cc1 [RCTM1]	Bad
CCOc1ccc(N(c2ccc(/C=C/c3ccc(N(c4ccc(C)cc4)c4ccc(C)cc4)cc3)cc2)c2ccc(/C=C/c3ccc(N(c4ccc(C)cc4)c4ccc(C)cc4)cc3)cc2)cc1 [CTM1]	Excellent

Reference: patent publication US9507284B2, “Electrophotographic photoreceptor, electrophotographic photoreceptor cartridge, image-forming apparatus, and triarylamine compound” (MITSUBISHI CHEMICAL CORPORATION, priority 2012, dated 2016)
